Experiments:
AR-VP16 [1] = molecular target: T1, AR-VP16 (Homo sapiens, UniProt P10275); assay: AR-VP16 DNA Binding Assay, agonist mode (HepG2 cells); assay type: cell-based; conditions: Emax >20x DMSO control = agonist
T1 sequence (P10275 560-920 limits assumed): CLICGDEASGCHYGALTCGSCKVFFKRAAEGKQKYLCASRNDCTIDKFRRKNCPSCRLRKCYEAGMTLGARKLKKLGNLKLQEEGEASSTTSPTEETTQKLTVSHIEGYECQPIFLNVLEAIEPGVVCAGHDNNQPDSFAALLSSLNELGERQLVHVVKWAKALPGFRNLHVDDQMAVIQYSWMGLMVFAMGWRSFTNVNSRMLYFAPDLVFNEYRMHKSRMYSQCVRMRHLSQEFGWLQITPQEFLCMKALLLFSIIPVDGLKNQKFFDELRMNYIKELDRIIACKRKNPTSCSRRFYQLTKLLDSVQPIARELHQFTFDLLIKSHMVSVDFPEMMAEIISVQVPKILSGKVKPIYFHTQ

AR-VP16 [2] = molecular target: T1, AR-VP16; assay: AR-VP16 DNA Binding Assay, antagonist mode (HepG2 cells, 0.1 nM R1881); assay type: cell-based
In short: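 Transfected HepG2 cells expressing AR-VP16 received serially diluted compound in charcoal-stripped-serum RPMI the day after transfection, with 0.1 nM R1881 (final) added only for antagonist testing. After 48 h, cells were lysed for measurement.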

Compound | ARVP16 DNA Binding Assay (Agonist mode): Agonist? (AR-VP16 [1]) | IC50 (AR-VP16 [2]) [µM]
Cc1cc(N2C(=O)C3(CCC3)N(c3ccc(C(=O)Nc4ccccc4F)c(F)c3)C2=S)cnc1C#N [Compound 297, 4-(7-(6-Cyano-5-methylpyridin-3-yl)-8-oxo-6-thioxo-5,7-diazaspiro[3.4]octan-5-yl)-2-fluoro-N-(2-fluorophenyl)benzamide] | No (Agonist defined as a compound whose Emax in the ARVP16 DNA Binding Assay (Agonist mode) is >20x DMSO control) | < 1
N#Cc1ncc(N2C(=O)C3(CCC3)N(c3ccc(F)c(OCCCN4CCOCC4)c3)C2=S)cc1C(F)(F)F [Compound 165, 5-(5-(4-Fluoro-3-(3-morpholinopropoxy)phenyl)-8-oxo-6-thioxo-5,7-diazaspiro[3.4]octan-7-yl)-3-(trifluoromethyl)picolinonitrile] | No (Agonist defined as a compound whose Emax in the ARVP16 DNA Binding Assay (Agonist mode) is >20x DMSO control) | > 1
N#Cc1ncc(N2C(=O)C3(CCC3)N(c3ccc(F)c(C(=O)NCCc4ccccn4)c3)C2=S)cc1C(F)(F)F [Compound 239, 5-(7-(6-Cyano-5-(trifluoromethyl)pyridin-3-yl)-8-oxo-6-thioxo-5,7-diazaspiro[3.4]octan-5-yl)-2-fluoro-N-(2-(pyridin-2-yl)ethyl)benzamide] | No (Agonist defined as a compound whose Emax in the ARVP16 DNA Binding Assay (Agonist mode) is >20x DMSO control) | > 1
N#Cc1ncc(N2C(=O)C3(CCC3)N(c3ccc(OCc4ccccc4)c(F)c3)C2=S)cc1C(F)(F)F [Compound 128, 5-(5-(4-(Benzyloxy)-3-fluorophenyl)-8-oxo-6-thioxo-5,7-diazaspiro[3.4]octan-7-yl)-3-(trifluoromethyl)picolinonitrile] | No (Agonist defined as a compound whose Emax in the ARVP16 DNA Binding Assay (Agonist mode) is >20x DMSO control) | < 1
N#Cc1ncc(N2C(=O)C3(CCC3)N(c3ccc(C(=O)NCC4CCCC4)c(F)c3)C2=S)cc1C(F)(F)F [Compound 283, 4-(7-(6-Cyano-5-(trifluoromethyl)pyridin-3-yl)-8-oxo-6-thioxo-5,7-diazaspiro[3.4]octan-5-yl)-N-(cyclopentylmethyl)-2-fluorobenzamide] | No (Agonist defined as a compound whose Emax in the ARVP16 DNA Binding Assay (Agonist mode) is >20x DMSO control) | < 1
N#Cc1ncc(N2C(=O)C3(CCC3)N(c3ccc(O)c(F)c3)C2=S)cc1C(F)(F)F [Compound 1, 5-(5-(3-Fluoro-4-hydroxyphenyl)-8-oxo-6-thioxo-5,7-diazaspiro[3.4]octan-7-yl)-3-(trifluoromethyl)picolinonitrile] | No (Agonist defined as a compound whose Emax in the ARVP16 DNA Binding Assay (Agonist mode) is >20x DMSO control) | < 1
N#Cc1ncc(N2C(=O)C3(CCC3)N(c3ccc(OCCCCSCCCC(F)(F)C(F)(F)F)c(F)c3)C2=S)cc1C(F)(F)F [Compound 151, 5-(5-(3-Fluoro-4-(4-((4,4,5,5,5-pentafluoropentyl)thio)butoxy)phenyl)-8-oxo-6-thioxo-5,7-diazaspiro[3.4]octan-7-yl)-3-(trifluoromethyl)picolinonitrile] | No (Agonist defined as a compound whose Emax in the ARVP16 DNA Binding Assay (Agonist mode) is >20x DMSO control) | > 1
Cc1cc(N2C(=O)C3(CCC3)N(c3ccc(OCCc4ccccn4)c(F)c3)C2=S)cnc1C#N [Compound 169, 5-(5-(3-Fluoro-4-(2-(pyridin-2-yl)ethoxy)phenyl)-8-oxo-6-thioxo-5,7-diazaspiro[3.4]octan-7-yl)-3-methylpicolinonitrile] | No (Agonist defined as a compound whose Emax in the ARVP16 DNA Binding Assay (Agonist mode) is >20x DMSO control) | < 1
